In patent US20240174690A1, “ANNULATED 2-AMINO-3-CYANO THIOPHENES AND DERIVATIVES FOR THE TREATMENT OF CANCER” (BOEHRINGER INGELHEIM INTERNATIONAL GMBH, priority 2021, published 2024):
Converted amounts (≈) assume the structure as drawn. Where two headings read alike, the source gives them in different places.

How the values were obtained:
NCI-H358 cells = test: NCI-H358 CTG proliferation assay (120 h) (NSCLC, G12C); format: cell-based, human; conditions: Homo sapiens
Summary of the method: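 IC50 values derive from four-parameter nonlinear regression of CellTiter-Glo viability (RLU relative to DMSO wells) after 120 h of exposure. Cells were plated in RPMI-1640 + 10% FCS at 2000 per well (assay 1) or 200 per well (assay 2). Untreated cells were measured at compound addition as T0.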

[1] = Caco-2 assay (permeability PappAB, PappBA, efflux ratio); format: in vitro ADME; conditions: human, Caco-2, 10 μM test compound, pH 7.4; for Papp A→B at 90 min, 10 μM: apical to basolateral; for efflux ratio at 90 min, 10 μM: efflux ratio PappBA/PappAB, read-out: Caco ER
Summary of the method: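 Bidirectional permeability (apical-to-basolateral and reverse) through polarized Caco-2 monolayers, BSA 0.25% on each side, 37 °C. Donor and receiver sampled at 0-90 min after 25-30 min preincubation, analysed by HPLC/MS/MS. Apparent permeabilities derived from transfer rate normalised to area and t=0 donor concentration; ER taken as PappBA over PappAB.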

[2] = Solubility measurement (DMSO solution method), McIlvaine buffer pH 4.5 or 6.8; format: physicochemical; conditions: aqueous buffer, kinetic from dmso stock, DMSO stock diluted to 250 μM, 24 h shaking at ambient temperature
Summary of the method: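 Filtrate concentration by LC-UV, calibrated to a known-concentration reference dissolved completely in acetonitrile/water (1:1). Samples came from 250 µM final dilutions of DMSO stock in pH 4.5 or 6.8 McIlvaine buffer, shaken 24 h at ambient temperature, then filtered.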

LOVO cells = test: LOVO CTG proliferation assay (120 h) (CRC, G13D); format: cell-based; conditions: Homo sapiens, CTG 120 h
Summary of the method: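 IC50 comes from a four-parameter fit of CellTiter-Glo viability, expressed as RLU relative to DMSO wells. Compound exposure lasted 120 h in LOVO cells seeded the day before at 1000 cells/well in DMEM with 10% fetal calf serum.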

[3] = tested on: KRAS G12C-dependent Ba/F3 cells; test: Ba/F3 proliferation assay, KRAS G12C; format: cell-based; conditions: Mus musculus, BaF3, 72 h, AlamarBlue
Summary of the method: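 IL-3-independent Ba/F3 lines driven by transduced KRAS G12C, G12D or G12V, with puromycin withdrawn about ten days before testing. Viability after compound treatment measured by AlamarBlue fluorescence in duplicate, and values derived by curve fitting.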

[4] = assay 2, CTG, read-out: H358 (assay 2) IC50
[5] = McIlvaine buffer pH 4.5, read-out: solubility pH 4.5
[6] = McIlvaine buffer pH 6.8, read-out: solubility pH 6.8
[7] = assay 1, CTG, read-out: H358 (assay 1) IC50

| Compound | IC50 (NCI-H358 cells; [4]) | Papp A→B at 90 min, 10 μM [1] | efflux ratio at 90 min, 10 μM [1] | solubility at 24 h [2, 5] | solubility at 24 h [2, 6] | IC50 (LOVO cells) | IC50 [3] | IC50 (NCI-H358 cells; [7]) |
| --- | --- | --- | --- | --- | --- | --- | --- | --- |
| C[C@H](Oc1cc(N2CCNC3(CCC3)C2)nc(-c2onc3c2CCC[C@@]32CCCc3sc(N)c(C#N)c32)n1)[C@@H]1CCCN1C [I-3] | 1320 nM | 1.2 ×10⁻⁶ cm/s | 20.8 | > 173 µg/mL | > 176 µg/mL | 2160 nM | 345 nM | – |
| C[C@H](Oc1cc(N2CCNC3(COC3)C2)nc(-c2onc3c2CCC[C@@]32CCCc3sc(N)c(C#N)c32)n1)[C@@H]1CCCN1C [I-4] | 740 nM | < 4.8 ×10⁻⁶ cm/s | – | > 148 µg/mL | > 140 µg/mL | 205 nM | 69 nM | – |
| C[C@H](Oc1cc(-n2ccnc2)nc(-c2onc3c2CCC[C@@]32CCCc3sc(N)c(C#N)c32)n1)[C@@H]1CCCN1C [I-20] | 287 nM | 4.3 ×10⁻⁶ cm/s | 4.9 | > 157 µg/mL | 98 µg/mL (≈ 176 µM) | 298 nM | 14 nM | – |
| C[C@H](Oc1cc([C@@H]2CCOC2)nc(-c2onc3c2CCC[C@@]32CCCc3sc(N)c(C#N)c32)n1)[C@@H]1CCCN1C [I-22] | 10 nM | 18 ×10⁻⁶ cm/s | 1.9 | 112 µg/mL (≈ 200 µM) | 104 µg/mL (≈ 185 µM) | 31 nM | 9 nM | 31 nM |
| CO[C@@H]1C[C@@H]([C@H](C)Oc2cc(-c3ccn(C)n3)nc(-c3onc4c3CCC[C@@]43CCCc4sc(N)c(C#N)c43)n2)N(C)C1 [I-23] | – | 9.2 ×10⁻⁶ cm/s | 1.5 | 106 µg/mL (≈ 176 µM) | < 1 µg/mL | 79 nM | 10 nM | 1 nM |
| C[C@H](Oc1cc(-c2ccn(CC(C)(C)O)n2)nc(-c2onc3c2CCC[C@@]32CCCc3sc(N)c(C#N)c32)n1)[C@@H]1CCCN1C [I-26] | 140 nM | 3 ×10⁻⁶ cm/s | 10.7 | – | – | 281 nM | 17 nM | – |
| C[C@H](Oc1cc(-c2cnsc2)nc(-c2onc3c2CCC[C@@]32CCCc3sc(N)c(C#N)c32)n1)[C@@H]1CCCN1C [I-27] | 121 nM | – | 1.1 | 67 µg/mL (≈ 117 µM) | 1 µg/mL (≈ 1.74 µM) | 265 nM | 18 nM | – |
| C[C@H](Oc1cc(-c2ccn(C[C@@H](C)O)n2)nc(-c2onc3c2CCC[C@@]32CCCc3sc(N)c(C#N)c32)n1)[C@@H]1CCCN1C [I-30] | 205 nM | 2 ×10⁻⁶ cm/s | 18.5 | > 150 µg/mL | > 141 µg/mL | 66 nM | 9 nM | – |
| C[C@H](Oc1cc(-c2ccn(C3COC3)n2)nc(-c2onc3c2CCC[C@@]32CCCc3sc(N)c(C#N)c32)n1)[C@@H]1CCCN1C [I-34] | 76 nM | 3.6 ×10⁻⁶ cm/s | 9.2 | > 135 µg/mL | 92 µg/mL (≈ 150 µM) | 161 nM | 7 nM | – |
| C[C@H](Oc1cc(N2CCN(C)C3(COC3)C2)nc(-c2onc3c2CCC[C@@]32CCCc3sc(N)c(C#N)c32)n1)[C@@H]1C[C@@H](F)CN1C [I-37] | 3890 nM | 12 ×10⁻⁶ cm/s | 2 | > 149 µg/mL | 17 µg/mL (≈ 26.2 µM) | 165 nM | 1180 nM | – |
| C[C@H](Oc1cc(N2CCN(C)C3(CC3)C2)nc(-c2onc3c2CCC[C@@]32CCCc3sc(N)c(C#N)c32)n1)[C@@H]1C[C@@H](F)CN1C [I-39] | 1450 nM | – | 0.6 | > 147 µg/mL | < 1 µg/mL | 354 nM | 613 nM | – |
| C[C@H](Oc1cc(N2CCNC3(CC3)C2)nc(-c2onc3c2CCC[C@@]32CCCc3sc(N)c(C#N)c32)n1)[C@@H]1C[C@@H](F)CN1C [I-45] | 470 nM | 11 ×10⁻⁶ cm/s | 3.1 | > 148 µg/mL | > 86 µg/mL | 315 nM | 280 nM | – |
| CO[C@H]1CCN(C)[C@@H]1[C@H](C)Oc1cc(N2CCNC3(CC3)C2)nc(-c2onc3c2CCC[C@@]32CCCc3sc(N)c(C#N)c32)n1 [I-49] | 145 nM | 10 ×10⁻⁶ cm/s | 2.9 | > 154 µg/mL | 43 µg/mL (≈ 68.2 µM) | 223 nM | 130 nM | – |
| CO[C@@H]1C[C@@H]([C@H](C)Oc2cc(N3CCN(C)C4(CC4)C3)nc(-c3onc4c3CCC[C@@]43CCCc4sc(N)c(C#N)c43)n2)N(C)C1 [I-50] | 733 nM | – | 1.7 | > 139 µg/mL | 95 µg/mL (≈ 147 µM) | 439 nM | 448 nM | – |
| COCCNC(=O)c1ccn(-c2cc(O[C@@H](C)[C@@H]3[C@@H](OC)CCN3C)nc(-c3onc4c3CCC[C@@]43CCCc4sc(N)c(C#N)c43)n2)n1 [I-55] | 5 nM | – | – | > 162 µg/mL | 5 µg/mL (≈ 7.27 µM) | 39 nM | 2 nM | – |
| C[C@H](NC(=O)c1ccn(-c2cc(O[C@@H](C)[C@@H]3CCCN3C)nc(-c3onc4c3CCC[C@@]43CCCc4sc(N)c(C#N)c43)n2)n1)c1ccccn1 [I-59] | 2 nM | – | – | > 150 µg/mL | 15 µg/mL (≈ 21.3 µM) | 22 nM | 2 nM | – |
| C[C@H](Oc1cc(-n2ccc(C(=O)N(C)C3COC3)n2)nc(-c2onc3c2CCC[C@@]32CCCc3sc(N)c(C#N)c32)n1)[C@@H]1CCCN1C [I-60] | 4 nM | – | – | > 158 µg/mL | > 161 µg/mL | 49 nM | 5 nM | – |

Now from value to compound:

| IC50 (NCI-H358 cells; [4]) | Papp A→B at 90 min, 10 μM [1] | efflux ratio at 90 min, 10 μM [1] | solubility at 24 h [2, 5] | solubility at 24 h [2, 6] | IC50 (LOVO cells) | IC50 [3] | IC50 (NCI-H358 cells; [7]) | Compound |
| --- | --- | --- | --- | --- | --- | --- | --- | --- |
| 134 nM | – | – | > 147 µg/mL | 20 µg/mL (≈ 31.6 µM) | 186 nM | 373 nM | – | C[C@@H]1CN(c2cc(O[C@@H](C)[C@@H]3C[C@@H](F)CN3C)nc(-c3noc4c3CCC[C@@]43CCCc4sc(N)c(C#N)c43)n2)CC2(CC2)N1 [II-17] |
| 160 nM | – | – | > 146 µg/mL | 8 µg/mL (≈ 12.6 µM) | 49 nM | 429 nM | – | C[C@H](Oc1cc(N2C[C@H](C)NC3(CC3)C2)nc(-c2noc3c2CCC[C@@]32CCCc3sc(N)c(C#N)c32)n1)[C@@H]1C[C@@H](F)CN1C [II-18] |
| 2 nM | – | – | 89 µg/mL (≈ 136 µM) | < 1 µg/mL | 21 nM | 5 nM | 17 nM | C[C@H](Oc1cc(-n2ccc(C(=O)N3CCCC3)n2)nc(-c2noc3c2CCC[C@@]32CCCc3sc(N)c(C#N)c32)n1)[C@@H]1CCCN1C [II-19] |
| 4 nM | – | – | 75 µg/mL (≈ 119 µM) | < 1 µg/mL | 124 nM | 8 nM | – | CCOC(=O)c1ccn(-c2cc(O[C@@H](C)[C@@H]3CCCN3C)nc(-c3noc4c3CCC[C@@]43CCCc4sc(N)c(C#N)c43)n2)n1 [II-23] |
| 457 nM | < 0.5 ×10⁻⁶ cm/s | – | – | – | 1690 nM | 1290 nM | – | CN[C@H]1CCN(c2cc(O[C@@H](C)[C@@H]3CCCN3C)nc(-c3noc4c3CCC[C@@]43CCCc4sc(N)c(C#N)c43)n2)C1 [II-35] |
| 1520 nM | – | – | > 138 µg/mL | > 130 µg/mL | 703 nM | 490 nM | – | C[C@H](Oc1cc(N2CCNC3(CCCC3)C2)nc(-c2noc3c2CCC[C@@]32CCCc3sc(N)c(C#N)c32)n1)[C@@H]1CCCN1C [II-41] |
| > 25000 nM | – | – | > 135 µg/mL | > 118 µg/mL | 6600 nM | 606 nM | 969 nM | C[C@H](Oc1cc(N2CCNCC2)nc(-c2noc3c2CCC[C@@]32CCCc3sc(N)c(C#N)c32)n1)[C@@H]1CCCN1C [II-45] |
| 2050 nM | – | – | > 162 µg/mL | > 145 µg/mL | 459 nM | 240 nM | – | C[C@H](Oc1cc(N2CC[C@@H](N(C)C)C2)nc(-c2noc3c2CCC[C@@]32CCCc3sc(N)c(C#N)c32)n1)[C@@H]1CCCN1C [II-47] |
| 99 nM | – | 1.8 | – | – | 334 nM | 112 nM | – | [2H]C([2H])([2H])N1C[C@H](F)C[C@H]1[C@H](C)Oc1cc(N2CCNC3(CC3)C2)nc(-c2noc3c2CCC[C@@]32CCCc3sc(N)c(C#N)c32)n1 [II-208] |
